# Legend:
# large (Lg) crabgrass = assay: Test C preemergence; type: in vivo, Digitaria sanguinalis; settings: for Crabgrass, Large plant response rating: preemergence; for Plant response rating, Crabgrass, Large: Preemergence, 31 g ai/ha, scale 0 to 100, 0 no effect, 100 complete control
# In short: (§1)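 Seeds were sown in loam–sand blend and sprayed preemergence, while plants at 1- to 4-leaf stage (2–18 cm) in peat-based medium received postemergence sprays; test chemicals were formulated in a non-phytotoxic solvent with surfactant. After 13–15 days in a greenhouse, injury was rated visually against controls, 0 (no effect) to 100 (complete control).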
# wild oat = assay: Test C postemergence; type: in vivo, Avena fatua
# In short: as §1
# barnyardgrass [1] = assay: Test C preemergence; type: in vivo, Echinochloa crus-galli; settings: for Barnyardgrass plant response rating: preemergence; for Plant response rating, Barnyardgrass: Preemergence, 31 g ai/ha, scale 0 to 100, 0 no effect, 100 complete control
# In short: as §1
# barnyardgrass [2] = assay: Test B flooded paddy test; type: in vivo, Echinochloa crus-galli; settings: Flood, 250 g ai/ha; 0 to 100 scale where 0 is no effect and 100 is complete control
# In short: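 Plants at 2-leaf stage; pots flooded to 3 cm above soil and compound applied directly into paddy water, depth held throughout. After 13 to 15 days in greenhouse, visual rating versus controls on 0 (no effect) to 100 (complete control) scale.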
# soybean = assay: Test C preemergence; type: in vivo, Glycine max; settings: for Soybean plant response rating: preemergence
# In short: as §1
# Italian ryegrass = assay: Test C preemergence; type: in vivo, Lolium multiflorum; settings: for Ryegrass, Italian plant response rating: preemergence
# In short: as §1
# oilseed rape = assay: Test C preemergence; type: in vivo, Brassica napus; settings: for Oilseed Rape plant response rating: preemergence
# In short: as §1
# chickweed = assay: Test C postemergence; type: in vivo, Stellaria media; settings: for Chickweed plant response rating / Plant response rating, Chickweed: scale 0 to 100 (0 no effect, 100 complete control)
# In short: as §1
# barnyardgrass [3] = assay: Test A preemergence; type: in vivo, Echinochloa crus-galli; settings: for Barnyardgrass plant response rating: 0 to 100 scale, 0 no effect, 100 complete control, approx. 10 days
# In short: (§2)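 Compounds in non-phytotoxic solvent with surfactant applied as soil spray preemergence, or postemergence to plants 2-10 cm at one- to two-leaf stage, in loam/sand. After approximately 10 days in greenhouse, injury rated visually versus untreated controls, 0 (no effect) to 100 (complete control).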
# galium = assay: Test C preemergence; type: in vivo, Galium aparine; settings: for Galium plant response rating: preemergence; for Plant response rating, Galium: Preemergence, 31 g ai/ha, scale 0 to 100, 0 no effect, 100 complete control
# In short: as §1
# corn = assay: Test A postemergence; type: in vivo, Zea mays
# In short: as §2
# [4] = 16 g ai/ha, scale 0 to 100 (0 no effect, 100 complete control)
# [5] = 62 g ai/ha, scale 0 (no effect) to 100 (complete control)
# [6] = 125 g ai/ha, scale 0 (no effect) to 100 (complete control)
# [7] = 16 g ai/ha, postemergence, 0 is no effect, 100 is complete control
# [8] = Postemergence, 62 g ai/ha, scale 0 to 100 (0 no effect, 100 complete control)
# [9] = Preemergence, 31 g ai/ha, scale 0 to 100, 0 no effect, 100 complete control
# [10] = 125 g ai/ha, 0 to 100 scale where 0 is no effect and 100 is complete control
SMILES,"Crabgrass, Large plant response rating (large (Lg) crabgrass; [4])","Crabgrass, Large plant response rating (large (Lg) crabgrass; [5])","Crabgrass, Large plant response rating (large (Lg) crabgrass; [6])","Plant response rating, Crabgrass, Large (large (Lg) crabgrass)","Plant response rating, Oat, Wild (wild oat; [8])",Barnyardgrass plant response rating (barnyardgrass [1]; [4]),Barnyardgrass plant response rating (barnyardgrass [1]; [5]),Barnyardgrass plant response rating (barnyardgrass [1]; [6]),"Plant response rating, Barnyardgrass (barnyardgrass [1])","Plant response rating, Barnyardgrass (barnyardgrass [2])",Soybean plant response rating (soybean; [4]),Soybean plant response rating (soybean; [5]),Soybean plant response rating (soybean; [6]),"Ryegrass, Italian plant response rating (Italian ryegrass; [4])","Ryegrass, Italian plant response rating (Italian ryegrass; [5])","Ryegrass, Italian plant response rating (Italian ryegrass; [6])",Oilseed Rape plant response rating (oilseed rape; [4]),Oilseed Rape plant response rating (oilseed rape; [5]),Oilseed Rape plant response rating (oilseed rape; [6]),"Plant response rating, Chickweed (chickweed; Postemergence, 62 g ai/ha)",other results
FCc1cn(-c2c(F)cccc2Oc2ncc(Cl)cn2)nn1 [Compound 154],75,100,100,90,0,5,70,100,25,20,50,80,95,0,20,25,98,100,100,10,"Plant response rating (0 to 100), Oat, Wild (wild oat; [7]): 0; Oat, Wild plant response rating (wild oat; 31 g ai/ha, postemergence, visual rating, scale 0 to 100 (0 no effect, 100 complete control), 13 to 15 days): 0; Plant response rating, Oat, Wild (wild oat; 125 g ai/ha, postemergence, visual rating, scale 0 to 100 (0 no effect, 100 complete control)): 0; Plant response rating (0 to 100), Chickweed (chickweed; [7]): 5; Chickweed plant response rating (chickweed; 31 g ai/ha, postemergence, visual rating, 13 to 15 days): 5; Plant response rating, Chickweed (chickweed; 125 g ai/ha, postemergence, visual rating): 60; Barnyardgrass plant response rating (barnyardgrass [3]; 1000 g ai/ha): 100; Galium plant response rating (galium; [4]): 80; Galium plant response rating (galium; [5]): 95; Galium plant response rating (galium; [6]): 95; Plant response rating, Galium (galium): 95; Plant response rating, Corn (corn; 1000 g ai/ha, 0 to 100 scale, 0 no effect, 100 complete control): 90"
CCOc1cnn(-c2c(C#N)cccc2Oc2ncc(F)cn2)c1 [Compound 89],80,100,100,100,5,5,70,100,35,10,30,90,98,0,45,50,80,95,98,50,"Plant response rating (0 to 100), Oat, Wild (wild oat; 125 g ai/ha, postemergence): 15; Plant response rating, Oat, Wild (wild oat; Postemergence, 31 g ai/ha, scale 0 to 100 (0 no effect, 100 complete control), 13 to 15 days): 5; Plant response rating, Soybean (soybean; [9]): 45; Plant response rating, Ryegrass, Italian (Italian ryegrass; [9]): 5; Plant response rating, Oilseed Rape (oilseed rape; [9]): 80; Chickweed plant response rating (chickweed; 16 g ai/ha, postemergence, visual rating, 13 to 15 days): 20; Plant response rating (0 to 100), Chickweed (chickweed; 125 g ai/ha, postemergence): 60; Plant response rating, Chickweed (chickweed; Postemergence, 31 g ai/ha, 13 to 15 days): 50; Plant response rating, Barnyardgrass (barnyardgrass [3]; [10]): 60; Barnyardgrass plant response rating (barnyardgrass [3]; 500 g ai/ha): 90; Galium plant response rating (galium; [4]): 30; Galium plant response rating (galium; [5]): 85; Galium plant response rating (galium; [6]): 100; Plant response rating, Galium (galium): 100; Plant response rating, Corn (corn; [10]): 60; Plant response rating, Corn (corn; 500 g ai/ha, 0 to 100 scale where 0 is no effect and 100 is complete control): 90"
